Experiments:
[1] = target: NLRP3 inflammasome (Homo sapiens, UniProt Q96P20); experiment: IL-1β release assay, NLRP3 inflammasome activation in THP-1 cells; type: cell-based
[2] = target: T1, CYP2C8 (Homo sapiens, UniProt P10632); experiment: CYP inhibition in human liver microsomes; type: in vitro ADME
T1 sequence (P10632 1-490): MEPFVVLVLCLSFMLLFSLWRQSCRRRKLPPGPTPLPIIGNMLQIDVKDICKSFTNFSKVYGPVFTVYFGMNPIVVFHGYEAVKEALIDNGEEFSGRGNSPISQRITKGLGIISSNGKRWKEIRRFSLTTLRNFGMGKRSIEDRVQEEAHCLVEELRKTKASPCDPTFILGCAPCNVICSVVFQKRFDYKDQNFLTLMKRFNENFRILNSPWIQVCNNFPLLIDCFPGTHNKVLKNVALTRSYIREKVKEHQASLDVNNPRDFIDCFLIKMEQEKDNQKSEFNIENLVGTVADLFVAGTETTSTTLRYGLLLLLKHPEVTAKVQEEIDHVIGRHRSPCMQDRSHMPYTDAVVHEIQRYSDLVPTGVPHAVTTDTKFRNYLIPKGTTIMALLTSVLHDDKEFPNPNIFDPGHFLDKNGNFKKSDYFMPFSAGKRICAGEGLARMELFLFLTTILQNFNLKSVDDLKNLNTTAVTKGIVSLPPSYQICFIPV

[3] = system: ASC; experiment: ASC oligomerization assay in THP-1 cells; type: cell-based, Human; conditions: LPS-ATP NLRP3 activated THP-1 cells, western blot
[4] = target: T2, AIM2 inflammasome (Homo sapiens, UniProt O14862); experiment: Poly; type: cell-based; conditions: THP-1 cells, Poly (dA:dT)
T2 sequence (O14862 1-343): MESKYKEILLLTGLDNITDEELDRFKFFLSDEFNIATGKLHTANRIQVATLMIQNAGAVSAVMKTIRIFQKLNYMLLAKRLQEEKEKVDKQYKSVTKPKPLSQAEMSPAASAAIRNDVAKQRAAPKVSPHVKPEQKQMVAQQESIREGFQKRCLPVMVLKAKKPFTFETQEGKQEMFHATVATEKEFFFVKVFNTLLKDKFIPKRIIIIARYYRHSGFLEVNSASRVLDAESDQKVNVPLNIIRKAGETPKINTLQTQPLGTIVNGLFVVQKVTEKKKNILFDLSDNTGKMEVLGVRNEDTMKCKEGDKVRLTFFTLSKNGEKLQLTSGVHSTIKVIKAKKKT

[5] = target: CYP2C9 (Homo sapiens, UniProt P11712); experiment: CYP inhibition in human liver microsomes; type: in vitro ADME
[6] = system: TNF-α; experiment: TNF-α release in LPS-ATP treated THP-1 cells; type: cell-based, Human

NLRP3 inflammasome, sequence (Q96P20 whole entry): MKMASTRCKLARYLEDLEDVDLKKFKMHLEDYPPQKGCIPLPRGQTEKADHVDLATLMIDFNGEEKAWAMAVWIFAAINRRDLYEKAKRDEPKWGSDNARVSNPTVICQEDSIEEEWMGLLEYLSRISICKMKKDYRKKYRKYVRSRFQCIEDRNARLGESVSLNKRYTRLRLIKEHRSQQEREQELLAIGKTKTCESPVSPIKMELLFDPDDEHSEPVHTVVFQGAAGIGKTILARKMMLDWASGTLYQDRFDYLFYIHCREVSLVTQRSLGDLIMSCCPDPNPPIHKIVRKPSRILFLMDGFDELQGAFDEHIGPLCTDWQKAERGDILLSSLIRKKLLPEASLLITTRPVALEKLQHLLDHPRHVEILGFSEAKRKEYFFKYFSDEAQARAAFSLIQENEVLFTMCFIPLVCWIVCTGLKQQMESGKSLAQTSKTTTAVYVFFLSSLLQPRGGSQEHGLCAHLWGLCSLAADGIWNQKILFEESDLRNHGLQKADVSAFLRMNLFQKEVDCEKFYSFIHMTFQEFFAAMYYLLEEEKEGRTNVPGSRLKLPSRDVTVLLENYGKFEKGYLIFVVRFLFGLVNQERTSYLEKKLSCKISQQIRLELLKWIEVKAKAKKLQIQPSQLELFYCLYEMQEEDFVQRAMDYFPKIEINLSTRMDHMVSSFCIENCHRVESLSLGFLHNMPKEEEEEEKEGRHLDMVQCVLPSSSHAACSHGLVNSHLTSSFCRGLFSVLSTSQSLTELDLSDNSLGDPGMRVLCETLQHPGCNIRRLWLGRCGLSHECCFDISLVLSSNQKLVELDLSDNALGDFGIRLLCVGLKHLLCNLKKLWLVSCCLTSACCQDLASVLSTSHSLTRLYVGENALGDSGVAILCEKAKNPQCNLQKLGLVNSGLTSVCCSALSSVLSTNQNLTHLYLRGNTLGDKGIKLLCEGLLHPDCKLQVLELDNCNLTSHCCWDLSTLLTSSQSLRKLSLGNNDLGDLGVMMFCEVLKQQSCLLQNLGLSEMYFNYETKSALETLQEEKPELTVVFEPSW
CYP2C9, sequence (P11712 whole entry): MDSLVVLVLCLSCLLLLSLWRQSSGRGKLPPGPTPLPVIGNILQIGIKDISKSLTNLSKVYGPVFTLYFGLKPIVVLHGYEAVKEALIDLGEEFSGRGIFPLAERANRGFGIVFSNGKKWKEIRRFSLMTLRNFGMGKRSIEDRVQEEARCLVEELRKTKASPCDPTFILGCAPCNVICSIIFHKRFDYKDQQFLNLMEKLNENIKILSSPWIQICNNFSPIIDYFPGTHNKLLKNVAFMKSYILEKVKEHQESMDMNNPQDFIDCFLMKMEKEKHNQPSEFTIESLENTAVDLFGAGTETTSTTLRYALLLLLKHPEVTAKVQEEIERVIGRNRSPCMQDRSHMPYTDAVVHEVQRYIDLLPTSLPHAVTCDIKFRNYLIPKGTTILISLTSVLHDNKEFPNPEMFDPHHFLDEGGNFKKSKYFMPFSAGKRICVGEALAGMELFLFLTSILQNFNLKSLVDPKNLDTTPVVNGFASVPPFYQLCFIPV

IC50 [1] [µM]	inhibition at 1 µM ([1]; THP-1, read-out: inhibition of secreted IL-1β) [%]	CYP2C8 inhibition (in words) [2]	inhibition of secreted IL-1β in AIM2 inflammasome activation (in words) [4]	CYP2C9 inhibition (in words) [5]	IC50 ([6]; Homo sapiens, THP-1, read-out: TNF-α IC50) [µM]	SMILES	ASC oligomerization (in words) [3]	inhibition of secreted TNF-α (in words) ([6]; THP-1 cells, LPS-ATP, up to high concentration)
> 1	< 50					O=C(NS(=O)(=O)/C=C/c1nccs1)c1c2c(cc3c1OCC3)OCC2 [Compound 20]		
		inhibit	no effect	inhibit	> 10	O=C(Nc1c2c(cc3c1CCC3)CCC2)NS(=O)(=O)/C=C/c1nccs1 [Compound 7, (E)-N-((1,2,3,5,6,7-hexahydro-s-indacen-4-yl)carbamoyl)-2-(thiazol-2-yl)ethene-1-sulfonamide]	blocked the oligomerisation of ASC	not affected

Source: paper PMC7834599 (Bioorganic & Medicinal Chemistry Letters, 2020)
